# Experimental data as given in the supplement of paper PMC10307832.
# Key:
# Assay in all cases: relative viability (nuclei count vs DMSO), 5 days (fraction); higher = more cells survive
# [1] = compound: C1=CC=C2C(=C1)C=CC(=C2SSC3=C(C=CC4=CC=CC=C43)O)O [IPA-3] + CC1(C)CCC(c2ccc(Cl)cc2)=C(CN2CCN(c3ccc(C(=O)NS(=O)(=O)c4ccc(N[C@H](CCN5CCOCC5)CSc5ccccc5)c(S(=O)(=O)C(F)(F)F)c4)cc3)CC2)C1 [Navitoclax] (partner 0.5 µM)
# Method in brief: (§1)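 Lung cancer cell lines, seeded in 1536-well plates, were treated the following day by pin tool with a single drug or with five library-drug doses (not always all listed) in √10 steps on top of a fixed anchor-drug dose. Cells were fixed and nuclei stained in one step after 5 days, and nuclei were counted. Relative viability is the nuclei count for treated wells divided by that for vehicle wells, reported as medians of duplicate plates.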
# [2] = compound: Cn1c(Nc2ccc(C(F)(F)F)cc2)nc2cc(Oc3ccnc(-c4ncc(C(F)(F)F)[nH]4)c3)ccc21 [RAF265] + O=C(CCCCCCC(=O)Nc1ccccc1)NO [Vorinostat] (partner 1 µM)
# Method in brief: as §1
# [3] = compound: C1=CC=C2C(=C1)C=CC(=C2SSC3=C(C=CC4=CC=CC=C43)O)O [IPA-3] + Cc1nc(NC(=O)N2CCC[C@H]2C(N)=O)sc1-c1ccnc(C(C)(C)C(F)(F)F)c1 [Alpelisib] (partner 2 µM)
# Method in brief: as §1
# [4] = compound: Cc1ccc(-n2nc(C(C)(C)C)cc2NC(=O)Nc2ccc(OCCN3CCOCC3)c3ccccc23)cc1 [Doramapimod] + Cc1cc(Nc2cc(N3CCN(C)CC3)nc(Sc3ccc(NC(=O)C4CC4)cc3)n2)n[nH]1 [Tozasertib] (partner 0.1 µM)
# Method in brief: as §1
cell line,measurement,setting,value
UMC-11,relative viability,[1]; first compound 0.2 µM,0.319
same,relative viability,[1]; first compound 0.6325 µM,0.306
same,relative viability,[1]; first compound 2 µM,0.321
same,relative viability,[1]; first compound 6.325 µM,0.367
same,relative viability,[1]; first compound 20 µM,0.462
same,relative viability,[2]; first compound 0.01 µM,0.458
same,relative viability,[2]; first compound 0.03162 µM,0.4
same,relative viability,[2]; first compound 0.1 µM,0.343
same,relative viability,[2]; first compound 0.3162 µM,0.357
same,relative viability,[2]; first compound 1 µM,0.32
same,relative viability,[3]; first compound 0.2 µM,1.22
same,relative viability,[3]; first compound 0.6325 µM,0.962
same,relative viability,[3]; first compound 2 µM,1.07
same,relative viability,[3]; first compound 6.325 µM,1.01
same,relative viability,[3]; first compound 20 µM,1.07
same,relative viability,[4]; first compound 0.02 µM,0.2
same,relative viability,[4]; first compound 0.06325 µM,0.174
same,relative viability,[4]; first compound 0.2 µM,0.199
same,relative viability,[4]; first compound 0.6325 µM,0.195
same,relative viability,[4]; first compound 2 µM,0.205
